In this test the target is T1, BCL6 (Homo sapiens, UniProt P41182).
T1 construct: endogenous in cells; host or cells: T47D breast cancer epithelial cells
In words: Immunofluorescence protocol for high content imaging of BCL6 (degradation) in T47D cells, 3 days compound treatment. The class given is cell-based. Conditions: for Dmax: read-out: Mean Dmax (%)** category; for DC50: read-out: Mean DC50 (nM)* category. A digest of the protocol: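 Remaining BCL6 in breast cancer T47D cells was measured by high-content immunofluorescence imaging after 3 days of treatment with serially diluted compound (top 0.1 or 1 μM). Nuclei were stained with Hoechst and cells with CellMask.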

Where [1] appears, read: T47D cells, 3 days compound treatment.

Like-named read-outs stand apart in the source and are kept apart here.

As a reminder, the Dmax is the largest share of the target that was removed. The term DC50 denotes the concentration giving 50% degradation.

`CNC(=O)COc1cc2cc(Nc3nc(N4CCC(O[C@H]5C[C@H](N6CCC(c7c(OC)cc8c(c7F)CN(C7CCC(=O)NC7=O)C8=O)CC6)C5)CC4)ncc3Cl)ccc2n(C(C)C)c1=O` (some centres unmarked) [Compound 409, 2-({6-[(5-chloro-2-{4-[(1r,3r)-3-{4-[2-(2,6-dioxopiperidin-3-yl)-4-fluoro-6-methoxy-1-oxo-2,3-dihydro-1H-isoindol-5-yl]piperidin-1-yl}cyclobutoxy]piperidin-1-yl}pyrimidin-4-yl)amino]-2-oxo-1-(propan-2-yl)-1,2-dihydroquinolin-3-yl}oxy)-N-methylacetamide]: the half-maximal degradation concentration (DC50) was less than 10 nM. Further, for the setting “T47D”, the Dmax was not below 70%.

Turning to `CNC(=O)COc1cc2c(F)c(Nc3nc(N4CCC(F)(CN5CCC6(CC5)CN(c5ccc7c(c5F)CN(C5CCC(=O)NC5=O)C7=O)C6)CC4)ncc3Cl)ccc2n(C(C)C)c1=O` (centres unmarked) [Compound 390, 2-{[6-({5-chloro-2-[4-({2-[2-(2,6-dioxopiperidin-3-yl)-4-fluoro-1-oxo-2,3-dihydro-1H-isoindol-5-yl]-2,7-diazaspiro[3.5]nonan-7-yl}methyl)-4-fluoropiperidin-1-yl]pyrimidin-4-yl}amino)-5-fluoro-2-oxo-1-(propan-2-yl)-1,2-dihydroquinolin-3-yl]oxy}-N-methylacetamide], the DC50 was less than 10 nM. Further, the Dmax (T47D) is not below 70%.

Take `CNC(=O)COc1cc2cc(Nc3nc(N4CCC(O[C@H]5C[C@H](N6CCN(c7ccc8c(c7F)C(=O)N(C7CCC(=O)NC7=O)C8=O)CC6)C5)CC4)ncc3Cl)ccc2n(C(C)C)c1=O` (some centres unmarked) [Compound 413, 2-({6-[(5-chloro-2-{4-[(1r,3r)-3-{4-[2-(2,6-dioxopiperidin-3-yl)-4-fluoro-1,3-dioxo-2,3-dihydro-1H-isoindol-5-yl]piperazin-1-yl}cyclobutoxy]piperidin-1-yl}pyrimidin-4-yl)amino]-2-oxo-1-(propan-2-yl)-1,2-dihydroquinolin-3-yl}oxy)-N-methylacetamide]: the half-maximal degradation concentration (DC50) lay in the range of 10 to 50 nM. Where the note is “T47D”, the Dmax was less than 50%.

For the molecule `CNC(=O)COc1cc2cc(Nc3nc(N4CCN(CC5(F)CCN(c6ccc7c(c6)CN(C6CCC(=O)NC6=O)C7=O)CC5)CC4)ncc3Cl)ccc2n(C(C)C)c1=O` (centres unmarked) [Compound 113, 2-{[6-({5-chloro-2-[4-({1-[2-(2,6-dioxopiperidin-3-yl)-1-oxo-3H-isoindol-5-yl]-4-fluoropiperidin-4-yl}methyl)piperazin-1-yl]pyrimidin-4-yl}amino)-1-isopropyl-2-oxoquinolin-3-yl]oxy}-N-methylacetamide], under setting [1], the DC50 was less than 10 nM and the Dmax fell in the range of 50 to 70%.

Consider `CNC(=O)COc1cc2cc(Nc3nc(N4CCC(N5CCC6(C5)CN(C5CCN(c7ccc8c(c7)C(=O)N(C7CCC(=O)NC7=O)C8=O)CC5)C6)CC4)ncc3Cl)ccc2n(C(C)C)c1=O` (centres unmarked) [Compound 224, 2-{[6-({5-chloro-2-[4-(2-{1-[2-(2,6-dioxopiperidin-3-yl)-1,3-dioxo-2,3-dihydro-1H-isoindol-5-yl]piperidin-4-yl}-2,6-diazaspiro[3.4]octan-6-yl)piperidin-1-yl]pyrimidin-4-yl}amino)-2-oxo-1-(propan-2-yl)-1,2-dihydroquinolin-3-yl]oxy}-N-methylacetamide], for which the DC50 lay in the range of 10 to 50 nM. The maximal degradation (Dmax) (T47D) is not below 70%.

For `CNC(=O)COc1cc2cc(Nc3nc(N4CCC(O[C@H]5C[C@H](N6CC[C@H](c7ccc8c(c7F)CN(C7CCC(=O)NC7=O)C8=O)[C@H](O)C6)C5)CC4)ncc3Cl)ccc2n(C(C)C)c1=O` (stereo partly drawn) [Compound 282, 2-({6-[(5-chloro-2-{4-[(1r,3r)-3-[(3S,4R)-4-[2-(2,6-dioxopiperidin-3-yl)-4-fluoro-1-oxo-2,3-dihydro-1H-isoindol-5-yl]-3-hydroxypiperidin-1-yl]cyclobutoxy]piperidin-1-yl}pyrimidin-4-yl)amino]-2-oxo-1-(propan-2-yl)-1,2-dihydroquinolin-3-yl}oxy)-N-methylacetamide], the DC50 was less than 10 nM. Where the note is “T47D”, the maximal degradation (Dmax) is 50 to 70%.

For `CNC(=O)COc1cc2cc(Nc3nc(N4CCC(F)(CN5CC(N6CCC(c7ccc8c(c7)C(=O)N(C7CCC(=O)NC7=O)C8=O)CC6)C5)CC4)ncc3Cl)ccc2n(C(C)C)c1=O` (centres unmarked) [Compound 97, 2-({6-[(5-chloro-2-{4-[(3-{4-[2-(2,6-dioxopiperidin-3-yl)-1,3-dioxo-2,3-dihydro-1H-isoindol-5-yl]piperidin-1-yl}azetidin-1-yl)methyl]-4-fluoropiperidin-1-yl}pyrimidin-4-yl)amino]-2-oxo-1-(propan-2-yl)-1,2-dihydroquinolin-3-yl}oxy)-N-methylacetamide], under setting [1], the DC50 was less than 10 nM and the greatest degradation seen (Dmax) was in the range of 50 to 70%.

As to `CNC(=O)COc1cc2cc(Nc3nc(N4CCC(O[C@H]5C[C@H](N6CCN(c7ccc8c(c7Cl)C(=O)N(C7CCC(=O)NC7=O)C8=O)CC6)C5)CC4)ncc3Cl)ccc2n(C(C)C)c1=O` (some centres unmarked) [Compound 412, 2-({6-[(5-chloro-2-{4-[(1r,3r)-3-{4-[4-chloro-2-(2,6-dioxopiperidin-3-yl)-1,3-dioxo-2,3-dihydro-1H-isoindol-5-yl]piperazin-1-yl}cyclobutoxy]piperidin-1-yl}pyrimidin-4-yl)amino]-2-oxo-1-(propan-2-yl)-1,2-dihydroquinolin-3-yl}oxy)-N-methylacetamide], the DC50 was 10 to 50 nM. Also, the Dmax (T47D) fell in the range of 50 to 70%.

`CNC(=O)COc1cc2cc(Nc3nc(N4CCC(C(=O)N5CCC6(CCN(c7ccc8c(c7)CN(C7CCC(=O)NC7=O)C8=O)C6)C5)CC4)ncc3Cl)ccc2n(C(C)C)c1=O` (centres unmarked) [Compound 47, 2-[(6-{[5-chloro-2-(4-{7-[2-(2,6-dioxopiperidin-3-yl)-1-oxo-2,3-dihydro-1H-isoindol-5-yl]-2,7-diazaspiro[4.4]nonane-2-carbonyl}piperidin-1-yl)pyrimidin-4-yl]amino}-2-oxo-1-(propan-2-yl)-1,2-dihydroquinolin-3-yl)oxy]-N-methylacetamide]: under setting [1], the 50% degradation concentration (DC50) was less than 10 nM and the greatest degradation seen (Dmax) fell in the range of 50 to 70%.

With `CNC(=O)COc1cc2cc(Nc3nc(N4CCC(C(C)(C)N5CCC6(CCN(c7ccc8c(c7)CN(C7CCC(=O)NC7=O)C8=O)C6)C5)CC4)ncc3Cl)ccc2n(C(C)C)c1=O` (centres unmarked) [Compound 53], under setting [1], the DC50 was less than 10 nM and the Dmax was 50 to 70%.

Regarding `CNC(=O)COc1cc2cc(Nc3nc(N4CCC(CN5CCC6(CN(c7cccc8c7CN(C7CCC(=O)NC7=O)C8=O)C6)C(F)(F)C5)CC4)ncc3Cl)ccc2n(C(C)C)c1=O` (centres unmarked) [Compound 102, 2-{[6-({5-chloro-2-[4-({2-[2-(2,6-dioxopiperidin-3-yl)-1-oxo-2,3-dihydro-1H-isoindol-4-yl]-5,5-difluoro-2,7-diazaspiro[3.5]nonan-7-yl}methyl)piperidin-1-yl]pyrimidin-4-yl}amino)-2-oxo-1-(propan-2-yl)-1,2-dihydroquinolin-3-yl]oxy}-N-methylacetamide], under setting [1], the 50% degradation concentration (DC50) was less than 10 nM and the Dmax is 50 to 70%.

For the molecule `CNC(=O)COc1cc2cc(Nc3nc(N4CCN(CC5CCN(c6ccc7c(c6OC)CN(C6CCC(=O)NC6=O)C7=O)CC5)CC4)ncc3Cl)ccc2n(C(C)C)c1=O` (centres unmarked) [Compound 20, 2-{[6-({5-chloro-2-[4-({1-[2-(2,6-dioxopiperidin-3-yl)-4-methoxy-1-oxo-2,3-dihydro-1H-isoindol-5-yl]piperidin-4-yl}methyl)piperazin-1-yl]pyrimidin-4-yl}amino)-2-oxo-1-(propan-2-yl)-1,2-dihydroquinolin-3-yl]oxy}-N-methylacetamide], under setting [1], the DC50 is not below 100 nM and the maximal degradation (Dmax) is not below 70%.

Consider `CNC(=O)COc1cc2cc(Nc3nc(N4CCC(O[C@H]5C[C@H](N6CCN(c7ccc8c(c7C)C(=O)N(C7CCC(=O)NC7=O)C8=O)CC6)C5)CC4)ncc3Cl)ccc2n(C(C)C)c1=O` (some centres unmarked) [Compound 177, 2-({6-[(5-chloro-2-{4-[(1r,3r)-3-{4-[2-(2,6-dioxopiperidin-3-yl)-4-methyl-1,3-dioxoisoindol-5-yl]piperazin-1-yl}cyclobutoxy]piperidin-1-yl}pyrimidin-4-yl)amino]-1-isopropyl-2-oxoquinolin-3-yl}oxy)-N-methylacetamide], for which, under setting [1], the DC50 is less than 10 nM and the maximal degradation (Dmax) was not below 70%.

In the case of `CNC(=O)COc1cc2cc(Nc3nc(N4CCC(O[C@H]5C[C@H](N6CCN(c7ccc8c(c7)CN([C@H]7CCC(=O)NC7=O)C8=O)C(C)(C)C6)C5)CC4)ncc3Cl)ccc2n(C(C)C)c1=O` [Compound 211, 2-({6-[(5-chloro-2-{4-[(1r,3r)-3-{4-[2-(2,6-dioxopiperidin-3-yl)-1-oxo-2,3-dihydro-1H-isoindol-5-yl]-3,3-dimethylpiperazin-1-yl}cyclobutoxy]piperidin-1-yl}pyrimidin-4-yl)amino]-2-oxo-1-(propan-2-yl)-1,2-dihydroquinolin-3-yl}oxy)-N-methylacetamide], the 50% degradation concentration (DC50) is less than 10 nM. Further, the maximal degradation (Dmax) (T47D) was not below 70%.

On to `CNC(=O)COc1cc2cc(Nc3nc(N4CCC(O[C@H]5C[C@H](N6CCC7(CN(c8ccc9c(c8)C(=O)N(C8CCC(=O)NC8=O)C9=O)C7)C6)C5)CC4)ncc3Cl)ccc2n(C(C)C)c1=O` (some centres unmarked) [Compound 338, 2-({6-[(5-chloro-2-{4-[(1r,3r)-3-{2-[2-(2,6-dioxopiperidin-3-yl)-1,3-dioxo-2,3-dihydro-1H-isoindol-5-yl]-2,6-diazaspiro[3.4]octan-6-yl}cyclobutoxy]piperidin-1-yl}pyrimidin-4-yl)amino]-2-oxo-1-(propan-2-yl)-1,2-dihydroquinolin-3-yl}oxy)-N-methylacetamide], for which the half-maximal degradation concentration (DC50) fell in the range of 10 to 50 nM. Besides, the greatest degradation seen (Dmax) (T47D) was not below 70%.

With `CNC(=O)COc1cc2cc(Nc3nc(N4CCC5(CC4)CC(C(C)(C)N4CCC(c6cccc7c6CN(C6CCC(=O)NC6=O)C7=O)CC4)C5)ncc3Cl)ccc2n(C(C)C)c1=O` (centres unmarked) [Compound 154, 2-{[6-({5-chloro-2-[2-(2-{4-[2-(2,6-dioxopiperidin-3-yl)-1-oxo-2,3-dihydro-1H-isoindol-4-yl]piperidin-1-yl}propan-2-yl)-7-azaspiro[3.5]nonan-7-yl]pyrimidin-4-yl}amino)-2-oxo-1-(propan-2-yl)-1,2-dihydroquinolin-3-yl]oxy}-N-methylacetamide], under setting [1], the DC50 is not below 100 nM and the Dmax was in the range of 50 to 70%.

The values are drawn from patent US11986532B2 (Arvinas Operations, Inc., priority 2021, dated 2024).
